# Assay results as given in article PMC4291531 (The Journal of Experimental Medicine, 2015).
# B1: Hg-HMGB1: HMGB1 with mercury thiolate on cysteine at position 106 (protein, UniProt P09429 1-215, looked up)
# High mobility group protein B1: MGKGDPKKPRGKMSSYAFFVQTCREEHKKKHPDASVNFSEFSKKCSERWKTMSAKEKGKFEDMAKADKARYEREMKTYIPPKGETKKKFKDPNAPKRPPSAFFLFCSEYRPKIKGEHPGLSIGDVAKKLGEMWNNTAADDKQPYEKKAAKLKEKYEKDIAAYRAKGKPDAAKKGVVKAEKSKKKKEEEEDEEDEEDEEEEEDEEDEDEEEDDDDE
# modifications: mercury thiolate on C106
# What was measured:
# WT or MD-2 KO mice = assay: APAP hepatotoxicity in WT or MD-2 KO mice; assay type: in vivo, mouse
# human MD-2 = molecular target: T1, human MD-2 (Homo sapiens, UniProt Q9Y6Y9); assay: SPR; assay type: binding; details: MD-2 coated on chip; for reduction in MD-2 binding as compared with disulfide HMGB1: SPR, HMGB1 isoforms
# T1 sequence (Q9Y6Y9 19-160): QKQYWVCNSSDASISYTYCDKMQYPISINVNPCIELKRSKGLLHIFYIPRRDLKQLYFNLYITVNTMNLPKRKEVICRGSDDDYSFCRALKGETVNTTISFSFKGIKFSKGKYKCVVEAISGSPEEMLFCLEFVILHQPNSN
# RAW 264.7 cells = assay: TNF release from RAW 264.7 cells stimulated with HMGB1 isoforms; details: 1 µg/ml, 16 h, n = 3–5 experiments
# [1] = molecular target: human MD-2 (myeloid differentiation factor 2) (human) (UniProt Q9Y6Y9); assay: SPR
# [2] = tested on: thioglycollate-elicited peritoneal macrophages (WT and MD-2 KO); assay type: cell-based; details: MD-2 KO vs WT macrophages; mouse cytokine antibody array
# immune cells = details: ref Tang et al., 2012, Venereau et al.; cited from earlier work
Molecule,reduction in MD-2 binding as compared with disulfide HMGB1 (human MD-2),TNF release induced by HMGB1 isoform (RAW 264.7 cells),extracellular chemokine/cytokine activity (in words) (immune cells),other results
"CC(=O)Nc1ccc(O)cc1 [APAP, acetaminophen]",,,,"serum HMGB1 levels, WT and MD-2 KO mice (WT or MD-2 KO mice; 24 h after APAP): comparably elevated in WT and MD-2 KO mice; APAP acute hepatic injury (GLDH, AST, ALT, necrosis), MD-2 KO vs WT (WT or MD-2 KO mice; APAP 400 mg/kg i.p., 24 h, n = 5–13 mice per group): significant reduction in acute hepatic injury; cytokine release and APAP-induced lethality, MD-2 KO vs WT (WT or MD-2 KO mice; APAP i.p. 400 mg/kg (serum, 24 h), 350 mg/kg (survival, n = 15)): significant reduction in cytokine (TNF and IL-6) release and APAP-induced animal lethality"
H2S-modified HMGB1: HMGB1 S-sulfhydrated by incubation with 5 mM NaSH for 3 h at room temperature,"> 1,000 fold",failed to induce TNF release,,
disulfide HMGB1 (from UniProt P63159 1-215) (natural protein),,,,Kd [1]: 12 nM
disulfide HMGB1: recombinant cytokine-stimulating HMGB1; disulfide bond between cysteines 23 and 45 and reduced thiol on cysteine 106,,induced TNF secretion,activates immune cells to produce cytokines/chemokines via the TLR4 receptor,MD-2 binding (in words) (human MD-2; SPR Biacore): binds to MD-2 with high affinity; release of IL-12/p40 stimulated with HMGB1 [2]: via an MD-2–independent mechanism
fully reduced HMGB1: HMGB1 with all cysteine residues reduced (DTT-reduced),"> 1,000 fold",failed to induce TNF release,binds to CXCL12 and stimulates immune cell infiltration via the CXCR4 receptor,
sulfonyl HMGB1 (from UniProt P63159 1-215) (natural protein),,,,fold reduction in MD-2 binding against disulfide HMGB1 [1]: > 1000 fold
sulfonyl HMGB1: HMGB1 with all cysteines terminally oxidized,"> 1,000 fold",failed to induce TNF release,devoid of chemotactic and cytokine activities,
B1,,Noncytokine-inducing,,
